Test results published in patent publication US20230414715A1, “TRAIL COMPOUNDS FOR REDUCING CANCER TREAMENT SIDE EFFECTS” (BROWN UNIVERSITY, priority 2022, published 2023).
Entries after “also recorded” stand apart in the source; their conditions may differ.

Columns and labels:
Assay type in all cases: in vivo, mouse
[1] = system: serum cytokines; assay: Serum cytokine analysis (Luminex) of irradiated mice; conditions: treated versus control
Description: (§1) Animal studies were carried out at Brown University facilities with approval from Brown University IACUC. C57B1/6 mice (Taconic), mice with bi-allelic loss of TRAIL Death Receptor-(DR5-/-) in a C57B1/6 background, and mice with bi-allelic loss of TRAIL (TRAIL -/-) in a C57B1/6 background were given a single whole-thorax x-ray (Philips RT250) irradiation dose of 20 Gy with shielding of other organs. 8-15-week-old male and female mice of each genotype were used. […] Treatment was continued for two weeks, where TLY012 was administered twice a week and ONC201 was administered once a week. For each genetic background, two mice received a control PO, two mice received TLY012 IP, and two mice received ONC201 PO. Mice were weighed twice a week, and 13 days post-irradiation all mice were euthanized. Organs were harvested from the mice and 600 μL of blood was collected via cardiac puncture for serum cytokine analysis. Organs were preserved in 10% formalin then embedded in paraffin and sectioned at a distance of 5 μm. […] TRAIL-/- female mice were also subjected to a survival study with a single whole-thorax radiation doses of 15 Gy or 18 Gy treated with the same regimen of TLY012 or control (n=2/radiation dose/treatment) (FIG. 3B). In order to determine the lethal dose of radiation for C57B1/6 mice, female C57B1/6 mice were treated with a single dose of whole-thorax irradiation of 25 Gy in a survival study where they were treated with either TLY012 or remained control (n=6/treatment) (FIG. 3C).
All mouse serum samples were analyzed by a custom R&D systems Murine Premixed Multi- Analyte Kit (R&D Systems, Inc., Minneapolis, MN). The panel was run on a Luminex 200 Instrument (Luminex Corporation, Austin, TX) according to the manufacturer's instructions. Murine serum levels of Angiopoietin-2, BAFF/BLyS/TNFSF13B, CCL2/JE/MCP-1, CCL3/MIP-1 alpha, CCL4/MIP-1 beta, CCL5/RANTES, CCL7/MCP-3/MARC, CCL11/Eotaxin, CCL12/MCP-5, CCL20/MIP-3 alpha, CCL21/6Ckine, CCL22/MDC, Chitinase 3-like 1, CXCL1/GRO alpha/KC/CINC-1, CXCL10/IP-10/CRG-2, CXCL12/S DF- 1 alpha, Dkk-1, FGF basic/FGF2/bFGF, GDF-15, GM-CSF, Granzyme B, IFN-gamma, IGF-I/IGF-1, IL-1 alpha/IL-1F1, IL-1 beta/IL-1F2, IL-2, IL-3, IL-4, IL-6, IL-7, IL-10, IL-13, IL-16, IL-17/IL-17A, IL-27, IL-33 M-CSF, MMP-3, MMP-8, MMP-12, Prolactin, TWEAK/TNFSF12, VEGF, and VEGFR2/KDR/Flk-1 were measured. Analyte values were reported in picograms per milliliter (pg/mL). […] Latent TGF-β was activated in samples using 1 N HCl and samples were neutralized with 1.2 N NaOH/0.5 M HEPES. Samples were assayed immediately after neutralization.

[2] = system: TRAIL-/- mice; assay: Radiation pneumonitis after whole-thorax x-ray irradiation, H&E of lung, TRAIL-null mice; conditions: TRAIL-/- male or female mice, 20 Gy thoracic irradiation, two weeks treatment, FIG. 2A, B
Description: as §1, with “In order to determine the lethal dose of radiation for C57B1/6 mice, female C57B1/6 mice were treated with a single dose of whole-thorax irradiation of 25 Gy in a survival study where they were treated with either TLY012 or remained control (n=6/treatment) (FIG. 3C).” left out

[3] = system: male TRAIL-/- mice; assay: Masson's trichrome stain of lung 22 weeks post-radiation (late fibrosis); conditions: 18 Gy, 10 mg/kg twice a week
Text: In order to examine the late term effects of thoracic radiation, we designed an experiment where the single radiation dose was lowered to 18 Gy in male TRAIL-/- mice. […] At 22 weeks when mice reached criteria for euthanasia, they were sacrificed and lung tissue was harvested. Lung tissue slides were stained with Masson's trichrome and imaged at 10X on an Olympus VS200 slide scanner.

[4] = system: female C57B1/6 mice; assay: 48-hour post-radiation TLY012 treatment; conditions: 20 Gy, 10 mg/kg twice a week, preliminary results
Text: Mice were weighed twice a week, and then euthanized on day 13 post-irradiation. […] H&E-stained slides of the lungs were imaged at 20× magnification.

TLY012: N-terminal PEGylated recombinant human TRAIL; PEGylated trimeric TRAIL formulation
CCL3/MIP-lalpha serum level [1]: increased | CXCL1 serum level [1]: increased | FGF basic serum level [1]: increase | GDF-15 serum level [1]: increased | IL6 serum level [1]: increased | MMP-8 serum level [1]: increased | rescue from radiation pneumonitis [2]: rescued | collagen deposition / fibrosis (Masson's trichrome) [3]: rescue; also recorded: decrease in collagen deposition; also recorded: less fibrosis | rescue when treatment starts 48 hours after irradiation [4]: some rescue is possible
